Read-outs that look alike come from different tables or passages of the source.
Legend:
TRPV1 = conditions: cited from earlier work; for EC50: read-out: TRPV1 EC50 (potency); for IC50: read-out: TRPV1 IC50 (desensitization)
human TRPV1 = target: T1, human TRPV1 (Homo sapiens, UniProt Q8NER1); test: cell-based; conditions: for Emax: HEK293, read-out: TRPV1 Eff. %;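 for Emax: percent of maximal Ca2+ influx with 4 µM ionomycin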;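 for TRPV1 Eff. %: percent of maximal Ca2+ influx with 4 µM ionomycin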
T1 construct: expressed in transfected cells
T1 sequence (Q8NER1 whole entry): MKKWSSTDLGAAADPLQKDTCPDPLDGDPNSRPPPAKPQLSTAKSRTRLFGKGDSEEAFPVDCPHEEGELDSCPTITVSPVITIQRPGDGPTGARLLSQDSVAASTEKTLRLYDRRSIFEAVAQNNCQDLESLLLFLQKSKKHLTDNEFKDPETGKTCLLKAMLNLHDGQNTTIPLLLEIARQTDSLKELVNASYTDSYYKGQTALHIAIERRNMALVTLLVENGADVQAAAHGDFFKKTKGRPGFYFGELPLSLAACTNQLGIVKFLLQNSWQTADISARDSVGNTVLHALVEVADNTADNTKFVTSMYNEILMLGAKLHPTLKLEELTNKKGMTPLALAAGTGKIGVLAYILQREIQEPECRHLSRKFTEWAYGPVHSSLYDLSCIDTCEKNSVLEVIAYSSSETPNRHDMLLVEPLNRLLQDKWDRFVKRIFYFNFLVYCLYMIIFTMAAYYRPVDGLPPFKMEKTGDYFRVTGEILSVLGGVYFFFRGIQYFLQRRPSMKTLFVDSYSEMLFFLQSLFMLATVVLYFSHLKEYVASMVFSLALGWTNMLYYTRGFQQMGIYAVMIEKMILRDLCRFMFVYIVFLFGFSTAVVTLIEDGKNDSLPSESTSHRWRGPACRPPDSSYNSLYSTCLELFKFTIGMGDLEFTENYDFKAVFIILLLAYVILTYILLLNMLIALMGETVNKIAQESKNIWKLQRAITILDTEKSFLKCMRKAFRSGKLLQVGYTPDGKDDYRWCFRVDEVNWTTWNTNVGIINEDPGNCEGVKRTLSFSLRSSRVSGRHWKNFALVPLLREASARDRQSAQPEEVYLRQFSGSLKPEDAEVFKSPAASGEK

rat TRPA1 = target: T2, rat TRPA1 (Rattus norvegicus, UniProt Q6RI86); test: cell-based; conditions: for Emax: HEK293, read-out: TRPA1 Eff. %;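 for Emax: percent of maximal Ca2+ influx with 100 µM AITC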;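 for TRPA1 Eff. %: percent of maximal Ca2+ influx with 100 µM AITC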
T2 construct: expressed in transfected cells
T2 sequence (Q6RI86 whole entry): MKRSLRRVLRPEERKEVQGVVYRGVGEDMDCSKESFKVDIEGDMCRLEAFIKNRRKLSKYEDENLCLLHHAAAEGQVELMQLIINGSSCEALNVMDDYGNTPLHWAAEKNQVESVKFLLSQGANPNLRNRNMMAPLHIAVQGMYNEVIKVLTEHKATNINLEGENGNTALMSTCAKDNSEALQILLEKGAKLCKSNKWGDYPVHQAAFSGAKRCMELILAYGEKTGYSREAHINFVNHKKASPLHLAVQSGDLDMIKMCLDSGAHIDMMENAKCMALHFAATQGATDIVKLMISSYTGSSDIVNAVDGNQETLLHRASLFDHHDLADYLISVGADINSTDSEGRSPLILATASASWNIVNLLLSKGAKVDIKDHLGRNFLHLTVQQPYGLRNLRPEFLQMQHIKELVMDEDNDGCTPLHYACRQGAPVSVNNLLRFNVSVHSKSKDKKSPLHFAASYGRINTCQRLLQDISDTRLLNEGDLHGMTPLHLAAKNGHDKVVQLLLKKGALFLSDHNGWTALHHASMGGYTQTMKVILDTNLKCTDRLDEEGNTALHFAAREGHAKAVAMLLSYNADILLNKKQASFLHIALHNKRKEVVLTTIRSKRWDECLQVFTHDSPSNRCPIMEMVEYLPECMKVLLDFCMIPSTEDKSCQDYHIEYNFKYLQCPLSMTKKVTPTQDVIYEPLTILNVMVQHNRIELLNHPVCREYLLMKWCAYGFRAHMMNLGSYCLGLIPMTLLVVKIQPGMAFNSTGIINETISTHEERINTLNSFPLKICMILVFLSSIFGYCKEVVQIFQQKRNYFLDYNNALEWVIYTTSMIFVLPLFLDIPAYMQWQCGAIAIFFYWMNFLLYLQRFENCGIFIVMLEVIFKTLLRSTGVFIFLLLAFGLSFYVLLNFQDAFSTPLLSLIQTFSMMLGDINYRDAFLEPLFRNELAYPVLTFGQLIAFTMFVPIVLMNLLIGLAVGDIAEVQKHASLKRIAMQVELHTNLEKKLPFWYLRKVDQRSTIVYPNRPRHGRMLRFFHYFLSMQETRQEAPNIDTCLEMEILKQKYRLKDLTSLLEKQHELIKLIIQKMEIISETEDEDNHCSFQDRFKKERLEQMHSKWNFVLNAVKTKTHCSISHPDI

## COc1cc(CNC(=O)CCCc2ccc(I)s2)ccc1O [4a]
TRPV1
  EC50: 0.0074 µM
  IC50: 0.0051 µM

## COc1cc(CNC(=O)CCCc2ccc(-c3cccnc3)s2)ccc1O [4b]
TRPV1
  EC50: 0.0764 µM
  IC50: 0.145 µM

## COc1cc(CNC(=O)CCCc2ccc(-c3ccccc3)s2)ccc1O [4c]
TRPV1
  EC50: 0.0016 µM
  IC50: 0.0017 µM

## COc1cc(CNC(=O)CCCc2ccccc2)ccc1O [4d]
TRPV1
  EC50: 0.109 µM
  IC50: 0.273 µM

## O=C(Nc1ccc(O)cc1)c1cc2ccccc2[nH]1 [5a, N-(4-Hydroxyphenyl)-1H-indole-2-carboxamide]
Human TRPV1
  EC50: 2.3 ± 0.1 µM
  IC50: 10 ± 3.9 µM
  Emax: 54%
Rat TRPA1
  IC50: > 100 µM
  Emax: < 10%

## O=C(NCc1ccccc1)c1cc2ccccc2[nH]1 [5b, N-Benzyl-1H-indole-2-carboxamide]
Human TRPV1
  IC50: > 100 µM
  Emax: < 10%
Rat TRPA1
  IC50: > 100 µM
  Emax: < 10%

## O=C(NCc1ccc(O)cc1)c1cc2ccccc2[nH]1 [5c, N-(4-Hydroxybenzyl)-1H-indole-2-carboxamide]
Human TRPV1
  EC50: > 10 µM
  IC50: > 50 µM
  Emax: 47.2 ± 0.3%
Rat TRPA1
  IC50: > 100 µM
  Emax: < 10%

## COc1ccc(CNC(=O)c2cc3ccccc3[nH]2)cc1 [5d, N-(4-Methoxybenzyl)-1H-indole-2-carboxamide]
Human TRPV1
  IC50: > 50 µM
  Emax: < 10%
Rat TRPA1
  EC50: > 50 µM
  IC50: > 100 µM
  Emax: 39.1 ± 3.5%

## O=C(NCc1ccc(F)cc1)c1cc2ccccc2[nH]1 [5e, N-(4-Fluorobenzyl)-1H-indole-2-carboxamide]
Human TRPV1
  IC50: > 100 µM
  Emax: < 10%
Rat TRPA1
  EC50: 23.7 ± 2.1 µM
  IC50: > 50 µM
  Emax: 42.8 ± 1.8%

## COc1cc(CNC(=O)c2cc3ccccc3[nH]2)ccc1O [5f, N-(4-Hydroxy-3-methoxybenzyl)-1H-indole-2-carboxamide]
Human TRPV1
  EC50: 0.56 ± 0.08 µM
  IC50: 1.03 ± 0.09 µM
  TRPV1 Eff. %: 66.8 ± 1.3%
  Emax: 66.8%

## O=C(NCc1ccc(Cl)c(Cl)c1)c1cc2ccccc2[nH]1 [5g, N-(3,4-Dichlorobenzyl)-1H-indole-2-carboxamide]
Human TRPV1
  IC50: > 100 µM
  Emax: < 10%

## O=C(NCc1ccc(F)c(F)c1)c1cc2ccccc2[nH]1 [5h, N-(3,4-Difluorobenzyl)-1H-indole-2-carboxamide]
Human TRPV1
  IC50: > 100 µM
  Emax: < 10%
Rat TRPA1
  EC50: 19.1 ± 3.1 µM
  IC50: > 50 µM
  Emax: 68.4 to 101%

## O=C(NCCc1ccc(O)c(O)c1)c1cc2ccccc2[nH]1 [5i, N-(3,4-Dihydroxyphenethyl)-1H-indole-2-carboxamide]
Human TRPV1
  EC50: 8.1 ± 0.1 µM
  IC50: 2.1 ± 0.1 µM
  TRPV1 agonist behaviour (in words): very weak agonist
  Emax: 37.3 ± 0.1%

## Cn1c(C(=O)Nc2ccc(O)cc2)cc2ccccc21 [6a, N-(4-Hydroxyphenyl)-1-methyl-1H-indole-2-carboxamide]
Human TRPV1
  EC50: 0.34 ± 0.01 µM
  IC50: 0.72 ± 0.08 µM
  Emax: > 60%
Rat TRPA1
  EC50: 22.7 ± 1.7 µM
  IC50: > 50 µM
  Emax: 42.9 ± 0.5%

## Cn1c(C(=O)Nc2ccc(F)cc2)cc2ccccc21 [6b, N-(4-Fluorophenyl)-1-methyl-1H-indole-2-carboxamide]
Human TRPV1
  EC50: 3.5 ± 2.1 µM
  IC50: 6.9 ± 2.6 µM
  TRPV1 Eff. %: 34.4 ± 4.5%
  Emax: 34.4%
Rat TRPA1
  EC50: 2 ± 1.1 µM
  IC50: 5.2 ± 0.4 µM
  TRPA1 Eff. %: 78.6 ± 9.7%
  TRPA1 agonist behaviour (in words): very good TRPA1 agonist
  Emax: 78.6%

## Cn1c(C(=O)NCc2ccccc2)cc2ccccc21 [6c, N-Benzyl-1-methyl-1H-indole-2-carboxamide]
Human TRPV1
  IC50: > 50 µM
  Emax: < 10%
Rat TRPA1
  IC50: > 50 µM
  Emax: < 10%

## Cn1c(C(=O)NCc2ccc(O)cc2)cc2ccccc21 [6d, N-(4-hydroxybenzyl)-1-methyl-1H-indole-2-carboxamide]
Human TRPV1
  EC50: 1.1 ± 0.1 µM
  IC50: 19.2 ± 6.7 µM
  TRPV1 Eff. %: 27.6 ± 0.3%
  Emax: 27.6%
Rat TRPA1
  IC50: > 100 µM
  Emax: < 10%

## COc1ccc(CNC(=O)c2cc3ccccc3n2C)cc1 [6e, N-(4-methoxybenzyl)-1-methyl-1H-indole-2-carboxamide]
Human TRPV1
  IC50: > 10 µM
  Emax: < 10%
Rat TRPA1
  EC50: 20.3 ± 1.1 µM
  IC50: > 50 µM
  Emax: 81.3 ± 1.8%

## Cn1c(C(=O)NCc2ccc(F)cc2)cc2ccccc21 [6f, N-(4-fluorobenzyl)-1-methyl-1H-indole-2-carboxamide]
Human TRPV1
  IC50: > 100 µM
  Emax: < 10%
Rat TRPA1
  EC50: 20.4 ± 6.9 µM
  IC50: 33.5 ± 3.2 µM

## COc1cc(CNC(=O)c2cc3ccccc3n2C)ccc1O [6g, N-(4-hydroxy-3-methoxybenzyl)-1-methyl-1H-indole-2-carboxamide]
Human TRPV1
  EC50: 0.0365 µM
  Emax: > 60%
Human TRPV1; read-out: TRPV1 IC50 (antagonism/desensitization)
  IC50: 0.0535 ± 0.048 µM
Rat TRPA1
  EC50: > 50 µM
  IC50: > 100 µM
  Emax: 59.8 ± 1.6%

## Cn1c(C(=O)NCc2ccc(Cl)c(Cl)c2)cc2ccccc21 [6h, N-(3,4-Dichlorobenzyl)-1-methyl-1H-indole-2-carboxamide]
Human TRPV1
  IC50: 16.4 ± 0.5 µM
  Emax: < 10%

## Cn1c(C(=O)NCc2ccc(F)c(F)c2)cc2ccccc21 [6i, N-(3,4-Difluorobenzyl)-1-methyl-1H-indole-2-carboxamide]
Human TRPV1
  IC50: > 100 µM
  Emax: < 10%
Rat TRPA1
  EC50: 10.9 ± 0.9 µM
  IC50: 32.2 ± 3.2 µM
  Emax: 68.4 to 101%

## Cn1c(C(=O)NCCc2ccc(O)c(O)c2)cc2ccccc21 [6j, N-(3,4-Dihydroxyphenethyl)-1-methyl-1H-indole-2-carboxamide]
Human TRPV1
  EC50: 0.18 ± 0.05 µM
  IC50: 0.26 ± 0.02 µM
  Emax: > 60%

## COc1cc(CNC(=O)CCCc2cccs2)ccc1O [compound 2, N-(4-Hydroxy-3-Methoxybenzyl)-4-(Thiophen-2-yl)Butanamide]
TRPV1
  EC50: 0.87 µM
  IC50: 1.3 µM

## COc1cc(CNC(=O)CCCCC2CCSS2)ccc1O (stereo not drawn) [compound 3]
TRPV1
  EC50: 0.13 µM
  IC50: 0.13 µM
